# According to patent US20260055097A9, “NRF2 PROTEIN DEGRADERS” (Ganymede Oncology, Inc., priority 2022, published 2026):
# Columns and labels:
# LK-2 = assay: Cancer cell viability, LK-2 (CellTiter-Glo); type: cell-based; settings: Homo sapiens, LK-2, 72 h, LK-2 cells, 3 days, read-out: Cellular IC50 (μM) LK-2
# Procedure, shortened: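 A549 and LK-2 cells were seeded overnight at 20 K/mL and 35 K/mL respectively. They were then exposed for 3 days to nine three-fold dilutions, typically from 30 µM final. Viability was read as CellTiter-Glo luminescence after a 15 min lysis.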
# [1] = test system: various cancer cell lines; assay: Cancer cell testing, inhibitory activity in various cancer cell lines (CellTiter-Glo, 72 hours); type: cell-based
# Protocol: The inhibitory activity of representative Compounds of the Disclosure was tested in various cancer cell lines according to the following protocol.
# Cells were harvested from flasks into cell culture media and cell numbers were counted. Cells were then diluted with culture medium to the desired density, and 40 μL of cell suspension were added into each well of a 384-well cell culture plate (Corning, #3764). Plates were covered with lids and placed at room temperature for 30 minutes without shaking, and then transferred into a 37° C. 5% CO2 incubator.
# Cpd. Nos. 30 and 34 were dissolved in DMSO to form a 10 mM stock solution. Paclitaxel as the control compound was dissolved in DMSO to form a 0.33 mM stock solution. 45 μL of stock solution was transferred to a 384 pp-plate and 3-fold, 10-point dilutions were performed by transferring 15 μL of compound into 30 μL of DMSO using a TECAN (EVO200) liquid handler. Plates were spun at room temperature at 1,000 RPM for 1 minute, and shaken at a plate shaker for 2 minutes. […] of diluted compound were transferred from compound source plate into the cell plate. After compound treatment for 72 hours, CTG detection was performed for compound treatment plates as described in the “Detection” section.
# CellTiter Glo reagents were thawed and equilibrated to room temperature before the experiment. Plates were removed from incubators and equilibrated at room temperature for 15 minutes. 40 μL of CellTiter-Glo reagent was added to each well to be detected at 1:1 to culture medium. Then, plates were placed at room temperature for 30 min followed by reading on Ensight.
# Inhibition activity was calculated following the formula below:
# [formula] • HC: 0.3% DMSO, LC: 1 μM Paclitaxel
# IC50S were calculated by fitting the Curve using Xlfit (v5.3.1.3) according to the following equation: […]
smiles,measurement,setting,value
"Cc1sc(NC(=O)Cc2cccc(OCCOCCNc3cccc4c3C(=O)N(C3CCC(=O)NC3=O)C4=O)c2)nc1-c1ccc2c(c1)CCN2C(=O)C1CC1 (stereo not shown) [Cpd. No. 34, N-(4-(1-(cyclopropanecarbonyl)indolin-5-yl)-5-methylthiazol-2-yl)-2-(3-(2-(2-((2-(2,6-dioxopiperidin-3-yl)-1,3-dioxoisoindolin-4-yl)amino)ethoxy)ethoxy)phenyl) acetamide]",IC50,LK-2,0.02 µM
same,IC50,"[1]; HCC15, HCC-15, LUNG, KEAP1 p.G364C",0.0301 µM
same,IC50,"[1]; HEC59, UTERINE/ENDOMETRIAL, NRF2 p.N329D",0.0204 µM
same,IC50,"[1]; HEC151, UTERINE/ENDOMETRIAL, KEAP1 p.A34S, NRF2 p.L23GfsTer5",0.0867 µM
same,IC50,"[1]; HEC-251, HEC251, UTERINE/ENDOMETRIAL, KEAP1 p.Q227R, NRF2 p.K516T",0.0106 µM
same,IC50,"[1]; HEC-265, UTERINE/ENDOMETRIAL, KEAP1 p.R483C",0.0667 µM
same,IC50,"[1]; HO1U1, HEAD & NECK, NRF2 p.E82D",0.0548 µM
same,IC50,"[1]; Homo sapiens, A549, A549, LUNG, KEAP1 p.G333C",0.0206 µM
same,IC50,"[1]; Homo sapiens, COR-L88, CORL88, LUNG, NRF2 p.Q26P",0.0044 µM
same,IC50,"[1]; Homo sapiens, EBC-1, EBC1, LUNG, NRF2 p.D77V",0.152 µM
same,IC50,"[1]; Homo sapiens, HCC44, HCC44, UTERINE/ENDOMETRIAL, KEAP1 p.F211C",> 30 µM
same,IC50,"[1]; Homo sapiens, HCC95, HCC-95, LUNG, no KEAP1/NRF2 mutation listed",> 30 µM
same,IC50,"[1]; Homo sapiens, HEC-1-A, HEC1A, UTERINE/ENDOMETRIAL, KEAP1 p.Y33C, NRF2 G31R",0.0203 µM
same,IC50,"[1]; Homo sapiens, HEC-1B, HEC1B, UTERINE/ENDOMETRIAL, NRF2 p.G31R",> 30 µM
same,IC50,"[1]; Homo sapiens, KYSE-70, KYSE70, ESOPHAGEAL, NRF2 p.W24C",0.0336 µM
same,IC50,"[1]; Homo sapiens, KYSE-180, KYSE180, ESOPHAGEAL, NRF2 p.P278Q",0.0458 µM
same,IC50,"[1]; Homo sapiens, KYSE-520, KYSE520, ESOPHAGEAL, NRF2 p.T80I",0.0132 µM
same,IC50,"[1]; Homo sapiens, MES-SA, MESSA, UTERINE/ENDOMETRIAL, NRF2 p.E79K",0.0351 µM
same,IC50,"[1]; Homo sapiens, MRC5, MRC-5, NORMAL LUNG FIBROBLAST",0.0354 µM
same,IC50,"[1]; Homo sapiens, NCI-H23, NCI-H23, LUNG, KEAP1 p.Q193H",> 30 µM
same,IC50,"[1]; Homo sapiens, NCI-H358, NCI-H358, LUNG, no KEAP1/NRF2 mutation listed",0.0449 µM
same,IC50,"[1]; Homo sapiens, NCI-H460, NCI-H460, LUNG, KEAP1 p.D236H",> 30 µM
same,IC50,"[1]; Homo sapiens, NCI-H1792, NCI-H1792, LUNG, KEAP1 p.G462W",0.0417 µM
same,IC50,"[1]; Homo sapiens, NCI-H1944, NCI-H1944, LUNG, KEAP1 p.R320L",0.107 µM
same,IC50,"[1]; Homo sapiens, NCI-H2030, NCI-H2030, LUNG, KEAP1 p.V568F",0.224 µM
same,IC50,"[1]; Homo sapiens, NCI-H2122, NCI-H2122, LUNG, KEAP1 p.A170_R204del",> 30 µM
same,IC50,"[1]; Homo sapiens, NCI-H2126, NCI-H2126, LUNG, KEAP1 p.R320L",> 30 µM
same,IC50,"[1]; Homo sapiens, NCI-H2228, NCI-H2228, LUNG, NRF2 p.G31A",0.0574 µM
same,IC50,"[1]; Homo sapiens, RL95-2, RL95-2, UTERINE/ENDOMETRIAL, KEAP1 p.R116W",0.0209 µM
same,IC50,"[1]; Homo sapiens, SHP77, SHP-77, LUNG, KEAP1 p.D294Y",0.0225 µM
same,IC50,"[1]; Homo sapiens, UMC-11, UMC11, LUNG, KEAP1 p.G571A",0.0122 µM
same,IC50,"[1]; JHOC-5, UTERINE/ENDOMETRIAL, KEAP1 p.R483H",0.0542 µM
same,IC50,"[1]; LK-2, LUNG, NRF2 p.E79K",0.0094 µM
same,IC50,"[1]; MORCPR, LUNG, KEAP1 p.K551SfsTer44",0.0332 µM
same,IC50,"[1]; NCI-H322, NCI-H322, LUNG, KEAP1 p.R460S",0.0239 µM
same,IC50,"[1]; NCI-H920, LUNG, KEAP1 p.G603V",> 30 µM
same,IC50,"[1]; NCI-H1435, NCI-H1435, LUNG, KEAP1 p.R413L",0.15 µM
same,IC50,"[1]; NCI-H1688, NCI-H1688, LUNG, KEAP1 p.G511S",0.013 µM
same,IC50,"[1]; NCI-H2066, NCI-H2066, LUNG, KEAP1 p.P361L",0.0159 µM
same,IC50,"[1]; NCI-H2110, NCI-H2110, LUNG, KEAP1 p.G429C",0.0421 µM
same,IC50,"[1]; NCI-H2172, NCI-H2172, LUNG, KEAP1 p.G430C",0.0142 µM
same,IC50,"[1]; OE21, OE21, ESOPHAGEAL, NRF2 p.D318H",> 30 µM
same,IC50,"[1]; RERF-LC-Sq1, RERFLCSQ1, LUNG, NRF2 p.D29H",0.0856 µM
same,IC50,"[1]; RMUG-S, UTERINE/ENDOMETRIAL, KEAP1 p.G603V",0.0181 µM
same,IC50,"[1]; SNU2535, LUNG, NRF2 p.D29H",> 30 µM
same,IC50,"[1]; SW579, SW579, HEAD & NECK, NRF2 p.D77Y",0.0731 µM
